Laboratory results reported in patent EP4700022A1, “CYP11A1 INHIBITORS AND USE THEREOF” (Xizang Haisco Pharmaceutical Co., Ltd., priority 2023, dated 2024).

Tested on: testosterone level in NCI-H295R cells
Experiment: cells
Type: cell-based
Conditions: Homo sapiens, 72 h; for inhibition at 0.1 µM: read-out: Testosterone level in H295R (Elisa) inh.% 100 nM; for inhibition at 1 µM: read-out: Testosterone level in H295R (Elisa) inh.% 1000 nM; for IC50: read-out: IC50/nM
Protocol: 1. The purpose of the experimental study was intended to detect the testosterone level in the NCI-H295R cells by adopting the Enzyme linked immunosorbent assay (ELISA), so as to evaluate the inhibitory effects of the compounds on the testosterone level in the NCI-H295R cells. The H295R cells were purchased from ATCC, the cell complete medium contained DMEM: F12+ 10% FBS +0.00625 mg/ml insulin +0.00625 mg/ml transferrin+6.25 ng/ml selenium +1.25 mg/ml BSA+0.00535 mg/ml linoleic acid, and the cells were cultured in a 37°C, 5% CO2 incubator. The cells in the exponential growth phase were collected, and cultured in a cytokine-free medium (phenol red 1640-free +1% PS+10% css FBS+1.25 mg/ml BSA +0.00625 mg/ml insulin + 0.00625 mg/ml transferrin+6.25 ng/ml selenium+0.00535 mg/ml linoleic acid) for 3 days. The cells in the exponential growth phase were collected on the third day. The cell suspension was adjusted with a cytokine-free medium to a corresponding concentration and plated at 60000 cells/well, with the volume being 90 µL/well. Subsequently, 10 µL of the compounds at different concentrations was added and the plate was incubated in a CO2 incubator for 3 days. After the incubation was completed, according to the operation instructions for testosterone Elisa kit (Beyotime, PT872), 50 µL of the cell culture supernatant was collected from each well and centrifuged at 500 g for 5 min at room temperature and then the resulting supernatant was collected. The samples were added to the corresponding wells at 25 µl/well, and then formulated horseradish peroxidase labeled testosterone was added at 75 µl/well. The mixture was fully mixed for 10 seconds. The reaction wells were sealed with a plate-sealing film (white) and the mixture was incubated at room temperature in the dark for 120 min. The plate was washed 3 times with a volume of 300 µl per well, and then placed onto thick absorbent paper and dried. Chromogenic reagent TMB solution was added at 100 µl/well. The reaction wells were sealed with a plate-sealing film (white) and the mixture was incubated at room temperature in the dark for 15-20 min. Subsequently, a termination solution was added at 50 µl/well, and after the mixture was fully mixed, the absorbance value OD450 was immediately measured. The absorbance readings were processed using Graphpad Prim 8.0 software and S-shaped concentration curves were plotted and the IC50 values were calculated using a four-parameter non-linear regression model. The results were processed according to formula (1), the inhibition rate of the compound at different concentrations was calculated, and the IC50 value of the compound with an inhibition rate of 50% was calculated using Graphpad Prim 8.0 software, wherein RLU compound was the readout of the treated group, and RLU control was the average value of the solvent control group. Inhibition rate% = 100-RLUcompound /RLUcontrol × 100 [formula] Table 1. Inhibitory activity on testosterone level in NCI-H295R cells

For `CS(=O)(=O)N1CCC(COc2ccc(CN3Cc4ccccc4C3)c3cccnc23)CC1` [Compound 4], the inhibition at 0.1 µM was 81.5% and the inhibition at 1 µM was 89.2%.
`CS(=O)(=O)N1CCC(CCOc2cc(CN3Cc4ccccc4C3)ccn2)CC1` [Compound 10] gave an IC50 of 81.9 nM and an inhibition at 1 µM of 85.4%.
`CS(=O)(=O)N1CCC(CCn2ccc(CN3Cc4ccc(C5CC5)cc4C3)cc2=O)CC1` [Compound 16] was tested, and the inhibition at 0.1 µM was 51.7% and the inhibition at 1 µM was 89.4%.
`CS(=O)(=O)N1CCC(c2cc3oc(CN4Cc5ccc(C(F)(F)F)cc5C4)cc(=O)c3o2)CC1` [Compound 30] showed an IC50 of 35.3 nM, an inhibition at 0.1 µM of 59.1% and an inhibition at 1 µM of 80.9%.
`O=C(OC1CC1)N1CCC(COc2ccc(CN3Cc4ccc(C(F)(F)F)cc4C3)c3ccc(F)nc23)CC1` [Compound 36] gave an inhibition at 0.1 µM of 56.8% and an inhibition at 1 µM of 62%.
Work on `CS(=O)(=O)N1CC(OC(=O)N2CCC(COc3ccc(CN4Cc5ccc(C(F)(F)F)cc5C4)c4c3OCCO4)CC2)C1` [Compound 37] yielded an inhibition at 0.1 µM of 87.1% and an inhibition at 1 µM of 77%.
Work on `CS(=O)(=O)N1CC(OC(=O)N2CCC(COc3ccc(CN4Cc5ccc(C(F)(F)F)cc5C4)c4c3S(=O)(=O)CC4)CC2)C1` [Compound 39] yielded an inhibition at 0.1 µM of 55.8% and an inhibition at 1 µM of 74.6%.
`CS(=O)(=O)N1CC(OC(=O)N2CCC(CCOc3cc(CN4Cc5ccsc5C4)ccn3)CC2)C1` [Compound 41] showed an inhibition at 0.1 µM of 51.5% and an inhibition at 1 µM of 67.9%.
`O=C(OC1CC1)N1CCC(Cc2cc3oc(CN4Cc5ccc(C(F)(F)F)cc5C4)cc(=O)c3o2)CC1` [Compound 42] showed an inhibition at 0.1 µM of 76.9% and an inhibition at 1 µM of 82.6%.
For `O=C(OC1CC1)N1CCC(/C=C/c2coc(CN3Cc4cc5c(cc4C3)CCC5)cc2=O)CC1` [Compound 43], the inhibition at 0.1 µM was 75.6% and the inhibition at 1 µM was 77.8%.
`O=C(OC1CC1)N1CCC2(CC1)CC(Oc1cc(CN3Cc4ccc(C(F)(F)F)cc4C3)ccn1)C2` [Compound 48] showed an inhibition at 0.1 µM of 77.5% and an inhibition at 1 µM of 78.2%.
`CS(=O)(=O)N1CC(OC(=O)N2CCC(CCOc3cc(CN4Cc5ccc(C(F)(F)F)cc5C4)ccn3)CC2)C1` [Compound 49] was tested, and the inhibition at 0.1 µM was 57.7% and the inhibition at 1 µM was 65.2%.
For `O=C(OC1CC1)N1CCC(CCOc2ccnc(CN3Cc4ccc(C(F)(F)F)cc4C3)c2)CC1` [Compound 59], the inhibition at 0.1 µM was 60% and the inhibition at 1 µM was 76%.
With `O=C(N[C@H]1CC[C@H](Cc2cc3oc(CN4Cc5ccc(C(F)(F)F)cc5C4)cc(=O)c3o2)CC1)C1CC1` [Compound 66] the inhibition at 0.1 µM was 54.8% and the inhibition at 1 µM was 76.7%.
For `[2H]C([2H])([2H])C(=O)N[C@H]1CC[C@H](Cc2cc3oc(CN4Cc5ccc(C(F)(F)F)cc5C4)cc(=O)c3o2)CC1` [Compound 67], the inhibition at 0.1 µM was 52% and the inhibition at 1 µM was 72%.
Compound `N#Cc1cc(CN2Cc3ccc(C(F)(F)F)cc3C2)cc2cc([C@H]3CC[C@H](NC(=O)C4CC4)CC3)oc12` [Compound 69] has an inhibition at 0.1 µM of 79% and an inhibition at 1 µM of 80%.
Compound `O=C(N[C@H]1CC[C@H](CCOc2cc(CN3Cc4ccc(C(F)(F)F)cc4C3)ccn2)CC1)[C@H]1CC1(F)F` [Compound 70] has an inhibition at 0.1 µM of 68.9% and an inhibition at 1 µM of 76.3%.
In the case of `O=C(N[C@H]1CC[C@H](c2cc3oc(CN4Cc5ccc(C(F)(F)F)cc5C4)cc(=O)c3o2)CC1)C1CC(F)(F)C1` [Compound 72], the inhibition at 0.1 µM is reported as 81% and the inhibition at 1 µM is reported as 88%.
`COc1nc(CN2Cc3ccc(C(F)(F)F)cc3C2)ccc1OCC1CCN(C(=O)C2CC(F)(F)C2)CC1` [Compound 75] showed an inhibition at 0.1 µM of 76.2% and an inhibition at 1 µM of 90.4%.
For `O=C(CC(F)(F)F)N[C@H]1CC[C@H](CCOc2cc(CN3Cc4ccc(C(F)(F)F)cc4C3)ccn2)CC1` [Compound 76], the inhibition at 0.1 µM was 70% and the inhibition at 1 µM was 78%.
With `CS(=O)(=O)N1CCC(C2=COc3cc(CN4Cc5ccc(C(F)(F)F)cc5C4)ccc3O2)CC1` [Compound 84] the IC50 was 38 nM, the inhibition at 0.1 µM was 74% and the inhibition at 1 µM was 83%.
